Literature values in patent US8012958B2, “Methods for treating anxiety related disorders” (Hythlam, Inc., priority 2005, dated 2011).
Where two headings read alike, the source gives them in different places.

Key:
[1] = not given; remark: listed apart in the source
[2] = overdose
[3] = IM 2 to 3 mg (0.02 to 0.05 mg/kg); patients 60 years or older without concomitant narcotics
[4] = molecular target: T1, monoamine oxidase A (MAO-A) (Homo sapiens, UniProt P21397); details: single 300 mg dose
T1 sequence (P21397 1-527): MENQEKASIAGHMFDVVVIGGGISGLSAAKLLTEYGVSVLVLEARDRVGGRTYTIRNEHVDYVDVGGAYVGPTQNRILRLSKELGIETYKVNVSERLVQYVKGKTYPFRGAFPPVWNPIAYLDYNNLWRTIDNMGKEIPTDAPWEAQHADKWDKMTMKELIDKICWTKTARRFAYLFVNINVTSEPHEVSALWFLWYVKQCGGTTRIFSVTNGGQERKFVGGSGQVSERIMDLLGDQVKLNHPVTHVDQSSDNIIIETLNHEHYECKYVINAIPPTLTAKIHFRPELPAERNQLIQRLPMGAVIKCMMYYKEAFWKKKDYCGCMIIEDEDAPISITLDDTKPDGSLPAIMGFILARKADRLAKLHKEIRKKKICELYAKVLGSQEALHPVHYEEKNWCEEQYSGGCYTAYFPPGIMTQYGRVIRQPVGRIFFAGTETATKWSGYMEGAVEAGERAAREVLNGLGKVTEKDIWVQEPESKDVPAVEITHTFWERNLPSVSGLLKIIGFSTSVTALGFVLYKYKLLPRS

[5] = molecular target: T2, monoamine oxidase B (MAO-B) (Homo sapiens, UniProt P27338); details: single 300 mg dose
T2 sequence (P27338 1-520): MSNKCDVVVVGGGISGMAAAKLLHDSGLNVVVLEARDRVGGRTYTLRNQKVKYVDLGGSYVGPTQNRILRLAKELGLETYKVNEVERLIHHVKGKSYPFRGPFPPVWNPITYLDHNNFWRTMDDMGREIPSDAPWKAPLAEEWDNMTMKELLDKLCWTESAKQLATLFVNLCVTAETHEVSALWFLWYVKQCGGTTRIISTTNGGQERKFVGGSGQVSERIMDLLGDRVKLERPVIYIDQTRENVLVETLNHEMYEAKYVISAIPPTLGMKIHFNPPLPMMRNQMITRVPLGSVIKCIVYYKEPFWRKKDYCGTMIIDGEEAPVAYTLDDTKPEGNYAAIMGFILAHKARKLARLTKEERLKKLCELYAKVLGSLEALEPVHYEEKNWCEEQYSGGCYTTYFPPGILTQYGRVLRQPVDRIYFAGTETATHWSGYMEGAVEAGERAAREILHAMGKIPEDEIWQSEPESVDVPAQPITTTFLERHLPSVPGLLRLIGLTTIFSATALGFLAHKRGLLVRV

[6] = test system: GABAA receptor α4 subunit mRNA; details: for amount of α4 subunit mRNA after withdrawal of the drug: withdrawal after long-term exposure
[7] = test system: GABAA receptors that contain α4 or α6 subunits
GABAA receptors = details: 3 μM flumazenil; ethanol withdrawn cells

SMILES: CCC1(c2ccccc2)C(=O)NC(=O)NC1=O.CNC(C)CC1CCCCC1 [BARBEXACLONE]
- dose equivalent to 60 mg of phenobarbital (in vivo): 100 mg of barbexaclone is equivalent to 60 mg of phenobarbital.

SMILES: CCCCC1(CC)C(=O)NC(=O)NC1=O [BUTOBARBITAL]
- dose equivalent to 10 mg of Diazepam (butobarbital): 50 mg of Butobarbital is equivalent to 10 mg of Diazepam; Acc. to

SMILES: COc1ccc2c3c1O[C@H]1[C@@H](O)C=C[C@H]4[C@@H](C2)N(C)CC[C@@]341 [CODEINE]
- dose about equal to 30 mg (oral) of morphine (oral): 200 mg (oral) of codeine is about equal to 30 mg (oral) of morphine.

SMILES: C[C@]12C=CC(=O)N[C@@H]1CC[C@@H]1[C@@H]2CC[C@]2(C)[C@@H](C(=O)Nc3cc(C(F)(F)F)ccc3C(F)(F)F)CC[C@@H]12 [DUTASTERIDE, (5α,17β)-N-{2,5 bis(trifluoromethyl)phenyl}-3-oxo-4-azaandrost-1-ene-17-carboxamide]
- adverse effects compared with therapeutic dose of 0.5 mg ([1]; clinical study, 5 mg daily for 6 months): subjects for 6 months with no additional adverse effects to those

SMILES: CCCC(C)(COC(N)=O)COC(N)=O [MEPROBROMATE]
- ingested amount with which survival has been reported (as much as) [2]: much as 40 g.

SMILES: Cc1ncc2n1-c1ccc(Cl)cc1C(c1ccccc1F)=NC2 [MIDAZOLAM]
- sedation during the preoperative period [3]: (0.02 to 0.05 mg/kg) of VERSED produced adequate sedation

SMILES: O=C(NCCN1CCOCC1)c1ccc(Cl)cc1 [Moclobemide]
- inhibition of monoamine oxidase A (MAO-A) [4]: A single 300 mg dose of moclobemide inhibits 80% of monoamine
- inhibition of monoamine oxidase B (MAO-B) [5]: oxidase A (MAO-A) and 30% of monoamine oxidase B (MAO-B),

SMILES: CC1CN2CC(=O)Nc3ccc(Cl)cc3C2(c2ccccc2)O1 (stereo not shown) [OXAZOLAM]
- dose equivalent to 10 mg of Diazepam (oxazolam): 20 mg is equivalent to 10 mg of Diazepam.

SMILES: CCN(C(C)=O)c1cccc(-c2ccnc3c(C#N)cnn23)c1 [ZALPELON]
- amount of α4 subunit mRNA after withdrawal of the drug [6]: marked increase

SMILES: CN1C(=O)CN=C(c2ccccc2)c2cc(Cl)ccc21 [diazepam]
- effect on the ethanol withdrawal-induced increase in abundance of α4 subunit mRNA ([6]; exposure at the time of ethanol withdrawal): antagonizes the withdrawal-induced increase
- amount of α4 subunit mRNA after withdrawal of the drug [6]: marked increase
- affinity for or efficacy at GABAA receptors that contain α4 or α6 subunits [7]: no affinity for or efficacy

SMILES: CCOC(=O)c1ncn2c1CN(C)C(=O)c1cc(F)ccc1-2 [flumazenil, ethyl 8-fluoro-5,6-dihydro-5-methyl-6-oxo-4H-imidazo-[1,5-a][1,4]benzodiazepine-3-carboxylate]
- modulation of the GABA evoked Cl- current (GABAA receptors): potentiates the GABA evoked Cl— current
- adverse effect on the nervous system ([1]; human, in vivo): causing increased agitation and anxiety

SMILES: Cc1ccc(-c2nc3ccc(C)cn3c2CC(=O)N(C)C)cc1 [zolpidem]
- amount of α4 subunit mRNA after withdrawal of the drug [6]: marked increase
